Assay results as given in paper PMC12503912 (Chemmedchem, 2025).
*1 amine or outer side, *2 acyl side, *3 side chain or, on linkers, in order; H or OH if unused. Where a SMILES comes first, the peptide text is derived from it. [ ]: non-standard residue; d: D form. The star is where a group is joined. N(CH2CH2CO)Gly = O=C(CN(CCC(=O)[*:3])[*:1])[*:2]; NMe2Val = CC(C)[C@@H](C(=O)*)N(C)C; NHhexadecyl = CCCCCCCCCCCCCCCCN*; X1 = O=C(CN(Cc1cncs1)[*:1])[*:2]; NFurfurylGly = O=C(O)CNCc1ccco1; NMe(benzyl) = CN(Cc1ccccc1)*; NMeV = CN[C@H](C(=O)O)C(C)C; X2 = O=C(NCCCCN*)OCc1ccccc1; Nphe = O=C(O)CNCc1ccccc1; NHcHex = C1CCC(N*)CC1; NHBn = c1ccc(CN*)cc1; NHHex = CCCCCCN*; NHBu = CCCCN*

Tests used:
HCT-116 cells = details: 48 h
Experimental: (§1) The anticancer activity of the dolastatin 15 analogs 5a‐i was tested in comparison with cemadotin and the N‐methylated cemadotin derivative 5j against three human cancer cell lines, namely prostate adenocarcinoma PC‐3 cells, colorectal carcinoma HCT‐116 cells, and triple‐negative breast cancer MDA‐MB‐468 cells. In vitro cell viability and cytotoxicity assays were conducted and IC50 curves, and values were determined using the resazurin assay and fluorometric read‐out after 48 h cells’ treatment with the compounds in concentrations covering the micro‐ and nanomolar range (Figure S83, Supporting Information, SI).
(§2) Material and methods for cell-based assays
(§3) Human cell culture materials and cultivation methodology
(§4) The in vitro cell viability and cytotoxicity assays were performed with the human prostate cancer cell line PC-3, the human colorectal cancer cell line HCT-116 and the human triple-negative breast cancer cell line MDA-MB-468; the fluorescence microscopic inspections just with PC-3 cells. The cell lines were obtained from DSMZ (Braunschweig, Germany) and ATCC (Manassas, VA, USA) and cultivated in their specific growth medium. PC-3 cells were cultivated in RPMI 1640 supplemented with 1% (v/v) glutamine, and 10% (v/v) he at-inactivated fetal calf serum (FCS); HCT-116 was cultured in McCoy’s 5a Modified Medium supplemented with 10% (v/v) heat-inactivated FCS; and for MDA-MB-468, DMEM high glucose (4.5 g/L) supplemented with 10% (v/v) heat-inactivated FCS was used.
(§5) All the basal culture media and supplements, like glutamine and FCS, PBS and 0.05% trypsin-EDTA for cell detachment were purchased from Capricorn Scientific GmbH (Ebsdorfergrund, Germany). Cell culture plastics were used from TPP (Trasadingen, Switzerland), Greiner Bio-One (Frickenhausen, Germany) and Sarstedt (Nürnbrecht, Germany). Digitonin was purchased from Riedel De Haën (Seelze, Germany) and DMSO from Duchefa Biochemie (Haarlem, The Netherlands). Resazurin was used from Sigma-Aldrich Chemie GmbH (Taufkirchen, Germany). The tubulin-specific dye reagent SiR-tubulin kit (SC002) and verapamil were purchased from Spirochrome AG (Stein am Rhein, Switzerland), the nuclei stain H33342 was from Thermo Fisher Scientific (Waltham, MA, USA).
(§6) Cultivation was routinely done in T-75 flasks in a humidified atmosphere with 5% CO2 at 37 °C until subconfluency (~ 70-80%) was reached, and the cells were ready for subsequent sub-culturing or assay usage. For that, the adherent cells were rinsed with PBS and detached with trypsin/EDTA (0.05% in PBS) prior to cell passaging and seeding.
(§7) Cell viability assay - methodology
(§8) The impacts of the newly synthesized dolastatin derivatives analogs on the viability and proliferation of the three human cancer cell lines were investigated by performing fluorometric resazurin-based cell viability assays, following a protocol well established in our lab.[3,4] In 3 R. Kufka, R. Rennert, G. N. Kaluđerović, L. Weber, W. Richter, L. A. Wessjohann, Beilstein J. Org. Chem.
(§9) 4 Y. T. H. Lam, J. Hoppe, Q. N. Dang; A. Porzel, A. Soboleva, W. Brandt, R. Rennert, H. Hussain, M. D. Davari, […]
(§10) brief, the cells were seeded in low densities in 96-well plates (PC-3: 3.000 cells/well; HCT-116: 5.000 cells/well; MDA-MB-468: 10.000 cells/well) yielding a seeding confluency of ~ 10 – 20%, and were allowed to adhere overnight. Subsequently, the cells were treated for 48 h with dilutions series (25.6 pM – 10 µM in 5-fold dilutions) of the test compounds (1 mM DMSO stocks). For control measures, cells were treated in parallel with 1% DMSO (negative control, representing the final DMSO content of the highest concentrated sample point, for data normalization set to 100% cell viability) and 100 µM digitonin (positive control, for data normalization set to 0% cell viability). After finalization of the 48 h incubation, the incubation media were discarded, and cells were rinsed once with PBS. Resazurin solution in basal medium

MDA-MB-468 cells = details: 48 h
Experimental: as §1, §2, §3, §4, §5, §6, §7, §8, §9, §10

PC-3 cells = details: 48 h
Experimental: as §1, §2, §3, §4, §5, §6, §7, §8, §9, §10

[1] = test system: microtubule network in PC-3 cells
[2] = test system: PC-3, HCT-116 and MDA-MB-468 cells; details: all cancer cells tested; resazurin, 48 h (Figure S84)
Experimental: as §10

Row | SMILES | IC50 (HCT-116 cells) [µM] | IC50 (MDA-MB-468 cells) [µM] | IC50 (PC-3 cells) [µM] | cell and nuclear morphology after treatment [1] | effect on microtubule structure [1] | cytotoxic profile [2]
1 | CC(C)[C@H](NC(=O)[C@H](C(C)C)N(C)C)C(=O)N(C)[C@H](C(=O)N1CCC[C@H]1C(=O)N(CC(=O)NC1CCCCC1)[C@@H](Cc1ccccc1)C(=O)NCc1ccccc1)C(C)C [Peptide 11d] | > 10 | > 10 | > 10 |  |  | 
2 | CCCCNC(=O)CN(C(=O)[C@@H]1CCCN1C(=O)[C@H](C(C)C)N(C)C(=O)[C@@H](NC(=O)[C@H](C(C)C)N(C)C)C(C)C)[C@@H](C)C(=O)NCc1ccc(OC)cc1 [Peptide 11g] | > 10 | > 10 | > 10 |  |  | 
3 | CC(C)[C@H](NC(=O)[C@H](C(C)C)N(C)C)C(=O)N(C)[C@H](C(=O)N1CCC[C@H]1C(=O)N1CCC[C@H]1C(=O)N(C)Cc1ccccc1)C(C)C [Peptide 5j, N‐Methyl‐cemadotin] (NMe2Val-V[NMeV]PP-{NMe(benzyl)}) | > 10 | > 10 | > 10 |  |  | 
4 | CCCCNC(=O)CN(Cc1cncs1)C(=O)[C@@H]1CCCN1C(=O)[C@@H]1CCCN1C(=O)[C@H](C(C)C)N(C)C(=O)[C@@H](NC(=O)[C@H](C(C)C)N(C)C)C(C)C [Peptide 5h] (NMe2Val-V[NMeV]PP[X1]-NHBu) | 0.05 | 0.024 | 0.03 | enlarged and showed strongly fragmented nuclei | microtubule networks appear to be stabilized rather than destabilized | 
5 | CC(C)[C@H](NC(=O)[C@H](C(C)C)N(C)C)C(=O)N(C)[C@H](C(=O)N1CCC[C@H]1C(=O)N1CCC[C@H]1C(=O)N(CC(=O)NC1CCCCC1)Cc1ccccc1)C(C)C [Peptide 5d] (NMe2Val-V[NMeV]PP[Nphe]-NHcHex) | 1.9 | 1.4 | 1.2 |  |  | 
6 | CC(C)[C@H](NC(=O)[C@H](C(C)C)N(C)C)C(=O)N(C)[C@H](C(=O)N1CCC[C@H]1C(=O)N1CCC[C@H]1C(=O)NCc1ccccc1)C(C)C [cemadotin, reference compound] (NMe2Val-V[NMeV]PP-NHBn) | 0.001 | 0.0025 | 0.0013 |  |  | 
7 | CC(C)C[C@@H](C(=O)NCc1ccccc1)N(CC(=O)NC(C)(C)C)C(=O)[C@@H]1CCCN1C(=O)[C@H](C(C)C)N(C)C(=O)[C@@H](NC(=O)[C@H](C(C)C)N(C)C)C(C)C [Peptide 11b] | > 10 | > 10 | > 10 |  |  | 
8 | COc1ccc(CNC(=O)[C@H](CC(C)C)N(CC(=O)NCc2ccccc2)C(=O)[C@@H]2CCCN2C(=O)[C@H](C(C)C)N(C)C(=O)[C@@H](NC(=O)[C@H](C(C)C)N(C)C)C(C)C)cc1 [Peptide 11a] | > 10 | > 10 | > 10 |  |  | 
9 | CC(C)[C@H](NC(=O)[C@H](C(C)C)N(C)C)C(=O)N(C)[C@H](C(=O)N1CCC[C@H]1C(=O)N1CCC[C@H]1C(=O)N(CC(=O)NCc1ccccc1)Cc1ccccc1)C(C)C [Peptide 5c] (NMe2Val-V[NMeV]PP[Nphe]-NHBn) | 2.3 | 1.1 | 1.9 |  |  | 
10 | CCCCCCNC(=O)CN(Cc1ccccc1)C(=O)[C@@H]1CCCN1C(=O)[C@@H]1CCCN1C(=O)[C@H](C(C)C)N(C)C(=O)[C@@H](NC(=O)[C@H](C(C)C)N(C)C)C(C)C [Peptide 5b] (NMe2Val-V[NMeV]PP[Nphe]-NHHex) | 7.2 | 2.1 | ~5 |  |  | 
11 | CC(C)[C@H](NC(=O)[C@H](C(C)C)N(C)C)C(=O)N(C)[C@H](C(=O)N1CCC[C@H]1C(=O)N(CC(=O)NC1CCCCC1)[C@@H](Cc1ccccc1)C(=O)NCc1ccco1)C(C)C [Peptide 11e] | > 10 | > 10 | 9.3 |  |  | 
12 | CCCCCCCCCCCCCCCCNC(=O)CN(Cc1ccccc1)C(=O)[C@@H]1CCCN1C(=O)[C@@H]1CCCN1C(=O)[C@H](C(C)C)N(C)C(=O)[C@@H](NC(=O)[C@H](C(C)C)N(C)C)C(C)C [Peptide 5f] (NMe2Val-V[NMeV]PP[Nphe]-NHhexadecyl) | 2.7 | 2.1 | 2.1 |  |  | 
13 | CC(C)[C@H](NC(=O)[C@H](C(C)C)N(C)C)C(=O)N(C)[C@H](C(=O)N1CCC[C@H]1C(=O)N(CC(=O)NCc1ccccc1)[C@@H](Cc1ccccc1)C(=O)NCc1ccco1)C(C)C [Peptide 11f] | > 10 | > 10 | > 10 |  |  | 
14 | CCCCCCCCCCCCCCCCNC(=O)CCN(CC(=O)NC1CCCCC1)C(=O)[C@@H]1CCCN1C(=O)[C@H](C(C)C)N(C)C(=O)[C@@H](NC(=O)[C@H](C(C)C)N(C)C)C(C)C [Peptide 11i] (NMe2Val-V[NMeV]P[N(CH2CH2CO)Gly](NHhexadecyl)-NHcHex) | 6.4 | 3.4 | 2.3 |  |  | inducing the death of all cancer cells tested
15 | CCCCNC(=O)CN(C(=O)[C@@H]1CCCN1C(=O)[C@H](C(C)C)N(C)C(=O)[C@@H](NC(=O)[C@H](C(C)C)N(C)C)C(C)C)[C@@H](CC(C)C)C(=O)NCc1ccccc1 [Peptide 11c] | 7.9 | ~5 | > 10 |  |  | 
16 | CCCCNC(=O)CN(Cc1ccco1)C(=O)[C@@H]1CCCN1C(=O)[C@@H]1CCCN1C(=O)[C@H](C(C)C)N(C)C(=O)[C@@H](NC(=O)[C@H](C(C)C)N(C)C)C(C)C [Peptide 5i] (NMe2Val-V[NMeV]PP[NFurfurylGly]-NHBu) | > 10 | 1.2 | 3.7 |  |  | 
17 | CC(C)[C@H](NC(=O)[C@H](C(C)C)N(C)C)C(=O)N(C)[C@H](C(=O)N1CCC[C@H]1C(=O)N1CCC[C@H]1C(=O)N(CC(=O)NCCCCNC(=O)OCc1ccccc1)Cc1ccccc1)C(C)C [Peptide 5e] (NMe2Val-V[NMeV]PP[Nphe]-X2) | 4.3 | 1.2 | 1.6 |  |  | 
18 | CCCCCCNC(=O)CN(C(=O)[C@@H]1CCCN1C(=O)[C@H](C(C)C)N(C)C(=O)[C@@H](NC(=O)[C@H](C(C)C)N(C)C)C(C)C)[C@@H](C)C(=O)NCc1ccccc1 [Peptide 11h] |  |  | > 10 |  |  | 
19 | CCCCNC(=O)CN(Cc1ccccc1)C(=O)[C@@H]1CCCN1C(=O)[C@@H]1CCCN1C(=O)[C@H](C(C)C)N(C)C(=O)[C@@H](NC(=O)[C@H](C(C)C)N(C)C)C(C)C [Peptide 5a] (NMe2Val-V[NMeV]PP[Nphe]-NHBu) | 2.2 | 0.82 | 1.5 |  | acts in the initial phase of microtubule network disruption | 
